# ChEMBL document CHEMBL1128850, “Synthesis and qsar of dequalinium analogues AS K+ channel blockers. investigations on the role of the 4-amino group” (Bioorg Med Chem Lett, 1995)
# Legend:
# Format in all cases: functional
# Rattus norvegicus [1] = species: Rattus norvegicus; assay: Ratio of the negative logarithmic concentration to that of dequalinium that cause 50% inhibition of the hyperpolarization (AHP)
# Rattus norvegicus [2] = species: Rattus norvegicus; assay: Ability to inhibit the hyperpolarization (AHP) in cultured rat sympathetic neurons; conditions: Sympathetic neuron
# Rattus norvegicus [3] = species: Rattus norvegicus; assay: The equi-effective molar ratio of the concentration to that of dequalinium that cause 50% inhibition of the hyperpolarization (AHP)
IC50 (Rattus norvegicus [2]),SMILES,pEMR (Rattus norvegicus [1]),EMR (Rattus norvegicus [3])
4.5 µM,CC(=O)Nc1cc[n+](CCCCCCCCCC[n+]2ccc(NC(C)=O)c3ccccc32)c2ccccc12,-0.74,5.5
2.7 µM,c1ccc(Oc2cc[n+](CCCCCCCCCC[n+]3ccc(Oc4ccccc4)c4ccccc43)c3ccccc23)cc1,-0.81,6.5
1.4 µM,Nc1cc[n+](CCCCCCCCCC[n+]2ccc(N)c3ccccc32)c2ccccc12,-0.11,1.3
15 µM,Cc1cc[n+](CCCCCCCCCC[n+]2ccc(C)c3ccccc32)c2ccccc12,-1.41,26
–,c1ccc2c(c1)ccc[n+]2CCCCCCCCCC[n+]1cccc2ccccc21,-1.18,15
1.4 µM,CN(C)c1cc[n+](CCCCCCCCCC[n+]2ccc(N(C)C)c3ccccc32)c2ccccc12,-0.15,1.4
2.4 µM,c1ccc(Nc2cc[n+](CCCCCCCCCC[n+]3ccc(Nc4ccccc4)c4ccccc43)c3ccccc23)cc1,-0.53,3.4
–,Cc1cc(N)c2ccccc2[n+]1CCCCCCCCCC[n+]1c(C)cc(N)c2ccccc21.[Cl-].[Cl-] [DEQUALINIUM CHLORIDE],0,1
